In patent US9486434B2, “Method for delivery and use of isothiocyanates for prophylaxis and/or therapy of bladder cancer” (Health Research Inc., priority 2010, dated 2016):
Where two headings read alike, the source gives them in different places.

Assays:
[1] = test system: human bladder cancer UM-UC-3 cells; experiment: MTT cell growth and proliferation assay, UM-UC-3 cells; format: cell-based; conditions: Homo sapiens, read-out: IC50, inhibition of cell proliferation
Protocol: (§1) FIG. 3. The effect of AITC on cell survival and proliferation. AITC was evaluated at the indicated concentrations in human bladder cancer UM-UC-3 cells, rat bladder cancer AY-27 cells, and normal human bladder epithelial cells (HUC). A. Cell growth inhibition, measured by MTT assay, 72-h AITC treatment. IC50 was calculated from nonlinear regression curve fit. B. Cell cycle arrest (□, subG1; ? , G1; ? , 5; ▪, G2/M), measured by flow cytometry, 24 h AITC treatment. C. Apoptosis induction, measured by an ELISA assay, 24 h AITC treatment. Mean±SE, n=3-6), *P<0.05.
(§2) FIG. 10. The effect of NAC-AITC on cell survival and proliferation. NAC-AITC was evaluated in both UM-UC-3 cells and AY-27 cells. (A) Chemical structures of AITC and NAC-AITC. (B) Cell growth and proliferation, measured by 3-([…])-2,5-diphenyltetrazolium bromide assay, 72 h treatment with AITC or NAC-AITC at indicated concentrations. IC50 was calculated from the non-linear regression curve fit. (C) Apoptosis, measured by an enzyme-linked immunosorbent assay, 24 h NAC-AITC treatment at 15 µM. (D) Cell cycle (open bars, G1; shaded bars, S; closed bars, G2/M), measured by flow cytometry, 24 h NAC-AITC treatment at 15 μM. *P<, 0.005, compared with control.
Assays for cell proliferation, cell cycle arrest and apoptosis. To determine the antiproliferative activity of NAC-AITC, AY-27 cells were grown in 96-well microtiter plates ([…] with 0.15 ml medium per well) for 24 h and then grown for 72 h in fresh medium (0.2 ml/well) containing a series of concentrations of NAC-AITC or solvent. Cell growth was measured at the end of treatment using the 3-([…])-2,5-diphenyltetrazolium bromide assay, from which the half maximal inhibitory concentration (IC50) of NAC-AITC was calculated. AITC was also evaluated for comparison.

[2] = test system: normal human bladder epithelial cells (HUC); experiment: MTT cell growth assay, normal bladder epithelial cells; format: cell-based; conditions: 72-h treatment
Protocol: as §1

UM-UC-3 cells = experiment: Cell cycle arrest by flow cytometry, UM-UC-3 cells; format: cell-based, human; conditions: 24 h
Protocol: as §1
FIG. 4. Effect of AITC on mitosis, tubulin expression and apoptosis in human bladder cancer UM-UC-3 cells. Cells were treated with vehicle or AITC for 24 h (each numerical value is mean±SD). A. Flow cytometry analysis for cell cycle arrest. B. Wright-Giemsa staining for counting mitotic figures. Arrows point to cells in mitosis or mitotic catastrophe. C. Immunofluorescent staining of microtubules (green color) and DNA staining with DAPI (blue color). D. Western blotting of tubulins (GAPDH as a loading control). E. Loss of mitochondrial transmembrane potential (Δψm) measured by flow cytometry. […] G. Apoptotic cells (TUNEL cells) measured by flow cytometry. […]
as §2, with “The effect of NAC-AITC on cell survival and proliferation.” left out, “(A) Chemical structures of AITC and NAC-AITC.” left out
The effect of NAC-AITC on cell cycle progression was measured by flow cytometry as described previously. […] Induction of apoptosis by NAC-AITC was measured using the Cell Death Detection ELISA^plus kit (Roche Diagnostics, Indianapolis, Ind.), following the manufacturer's instruction. […]

[3] = test system: normal human bladder epithelial cells (HUC); experiment: Cell cycle arrest and apoptosis in HUC; format: cell-based; conditions: 7.5 and/or 15 microM
Protocol: as §1

AY-27 cells = experiment: Apoptosis induction ELISA (histone-associated DNA), AY-27 cells; format: cell-based, rat; conditions: 24 h
Protocol: as §1, §2
The effect of NAC-AITC on cell cycle progression was measured by flow cytometry as described previously. […]

SMILES | IC50 ([1]; UMUC3, 72 h) | IC50 [2] | cells in G2/M phase (UM-UC-3 cells; AITC 7.5-15 microM, control 9.9-11.5%) | increase in subG1 population (UM-UC-3 cells; AITC) | cell cycle arrest and apoptosis in HUC [3] | increase in cytoplasmic levels of histone-associated DNA (AY-27 cells; AITC) | IC50 ([1]; UMUC3, Example 9, 72 h treatment) | cells in G2/M phase (UM-UC-3 cells; NAC-AITC 15 µM, control 11-12%) | increase in apoptotic activity (AY-27 cells; 15 μM)
C=CCN=C=S [AITC, allyl isothiocyanate] | 2.7 µM | 69.4 µM | up to 72% | up to 6.5 fold | failed to cause cell cycle arrest and apoptosis | ≤ 5.2 fold | – | – | –
C=CCNC(=S)SC[C@H](NC(C)=O)C(=O)O [NAC-AITC, N-acetyl-S—(N-allylthiocarbamoyl)cysteine] | – | – | – | – | – | – | 7.4 µM | 55% | 10.6 fold
